From ChEMBL document CHEMBL4138123, “Design, synthesis and biological evaluation of novel pyrazolochalcones as potential modulators of PI3K/Akt/mTOR pathway and inducers of apoptosis in breast cancer cells” (Eur J Med Chem, 2017)

Key:
Format in all cases: functional
[1] = tested on: CCRF-CEM; assay: Cytotoxicity against human CCRF-CEM cells assessed as growth inhibition after 48 hrs by sulforhodamine B assay
[2] = tested on: K562; assay: Cytotoxicity against human K562 cells assessed as growth inhibition after 48 hrs by sulforhodamine B assay; conditions: K562, 48 h
[3] = tested on: IGROV-1; assay: Cytotoxicity against human IGROV1 cells assessed as growth inhibition after 48 hrs by sulforhodamine B assay; conditions: IGROV-1, 48 h
[4] = tested on: OVCAR-3; assay: Cytotoxicity against human OVCAR3 cells assessed as growth inhibition after 48 hrs by sulforhodamine B assay; conditions: OVCAR-3, 48 h
[5] = tested on: OVCAR-4; assay: Cytotoxicity against human OVCAR4 cells assessed as growth inhibition after 48 hrs by sulforhodamine B assay; conditions: OVCAR-4, 48 h
[6] = tested on: Hs-578T; assay: Cytotoxicity against human Hs 578T cells assessed as growth inhibition after 48 hrs by sulforhodamine B assay
[7] = tested on: SK-OV-3; assay: Cytotoxicity against human SKOV3 cells assessed as cell growth at 0.01 uM after 48 hrs by sulforhodamine B assay relative to control; conditions: SK-OV-3, 48 h, read-out: Activity
[8] = tested on: OVCAR-8; assay: Cytotoxicity against human OVCAR8 cells assessed as cell growth at 0.01 uM after 48 hrs by sulforhodamine B assay relative to control; conditions: OVCAR-8, 48 h, read-out: Activity
[9] = tested on: SR; assay: Cytotoxicity against human SR cells assessed as cell growth at 0.01 uM after 48 hrs by sulforhodamine B assay relative to control; conditions: read-out: Activity
[10] = tested on: Hs-578T; assay: Cytotoxicity against human Hs 578T cells assessed as cell growth at 0.01 uM after 48 hrs by sulforhodamine B assay relative to control; conditions: read-out: Activity
[11] = tested on: COLO 205; assay: Cytotoxicity against human COLO205 cells assessed as cell growth at 0.1 uM after 48 hrs by sulforhodamine B assay relative to control; conditions: COLO 205, 48 h, read-out: Activity
[12] = tested on: SNB-19; assay: Cytotoxicity against human SNB19 cells assessed as cell growth at 0.1 uM after 48 hrs by sulforhodamine B assay relative to control; conditions: SNB-19, 48 h, read-out: Activity
[13] = tested on: MDA-MB-435; assay: Cytotoxicity against human MDA-MB-435 cells assessed as cell growth at 0.1 uM after 48 hrs by sulforhodamine B assay relative to control; conditions: MDA-MB-435, 48 h, read-out: Activity
[14] = tested on: IGROV-1; assay: Cytotoxicity against human IGROV1 cells assessed as cell growth at 0.1 uM after 48 hrs by sulforhodamine B assay relative to control; conditions: IGROV-1, 48 h, read-out: Activity
[15] = tested on: OVCAR-4; assay: Cytotoxicity against human OVCAR4 cells assessed as cell growth at 0.1 uM after 48 hrs by sulforhodamine B assay relative to control; conditions: OVCAR-4, 48 h, read-out: Activity
[16] = tested on: MDA-MB-231; assay: Cytotoxicity against human MDA-MB-231 cells assessed as cell growth at 0.1 uM after 48 hrs by sulforhodamine B assay relative to control; conditions: MDA-MB-231, 48 h, read-out: Activity
[17] = tested on: UACC-62; assay: Cytotoxicity against human UACC62 cells assessed as cell growth at 1 uM after 48 hrs by sulforhodamine B assay relative to control; conditions: UACC-62, 48 h, read-out: Activity
[18] = tested on: OVCAR-4; assay: Cytotoxicity against human OVCAR4 cells assessed as cell growth at 1 uM after 48 hrs by sulforhodamine B assay relative to control; conditions: OVCAR-4, 48 h, read-out: Activity
[19] = tested on: TK-10; assay: Cytotoxicity against human TK10 cells assessed as cell growth at 1 uM after 48 hrs by sulforhodamine B assay relative to control; conditions: TK-10, 48 h, read-out: Activity
[20] = tested on: UO-31; assay: Cytotoxicity against human UO31 cells assessed as cell growth at 1 uM after 48 hrs by sulforhodamine B assay relative to control; conditions: UO-31, 48 h, read-out: Activity
[21] = tested on: NCI-H23; assay: Cytotoxicity against human NCI-H23 cells assessed as cell growth at 10 uM after 48 hrs by sulforhodamine B assay relative to control; conditions: NCI-H23, 48 h, read-out: Activity
[22] = tested on: NCI-H460; assay: Cytotoxicity against human NCI-H460 cells assessed as cell growth at 10 uM after 48 hrs by sulforhodamine B assay relative to control; conditions: NCI-H460, 48 h, read-out: Activity
[23] = tested on: HT-29; assay: Cytotoxicity against human HT-29 cells assessed as cell growth at 10 uM after 48 hrs by sulforhodamine B assay relative to control; conditions: HT-29, 48 h, read-out: Activity
[24] = tested on: SW-620; assay: Cytotoxicity against human SW620 cells assessed as cell growth at 10 uM after 48 hrs by sulforhodamine B assay relative to control; conditions: SW-620, 48 h, read-out: Activity
[25] = tested on: M14; assay: Cytotoxicity against human M14 cells assessed as cell growth at 10 uM after 48 hrs by sulforhodamine B assay relative to control; conditions: M14, 48 h, read-out: Activity
[26] = tested on: MDA-MB-435; assay: Cytotoxicity against human MDA-MB-435 cells assessed as cell growth at 10 uM after 48 hrs by sulforhodamine B assay relative to control; conditions: MDA-MB-435, 48 h, read-out: Activity
[27] = tested on: UACC-62; assay: Cytotoxicity against human UACC62 cells assessed as cell growth at 10 uM after 48 hrs by sulforhodamine B assay relative to control; conditions: UACC-62, 48 h, read-out: Activity
[28] = tested on: OVCAR-8; assay: Cytotoxicity against human OVCAR8 cells assessed as cell growth at 10 uM after 48 hrs by sulforhodamine B assay relative to control; conditions: OVCAR-8, 48 h, read-out: Activity
[29] = tested on: NCI/ADR-RES; assay: Cytotoxicity against human NCI/ADR-RES cells assessed as cell growth at 10 uM after 48 hrs by sulforhodamine B assay relative to control; conditions: read-out: Activity
[30] = tested on: SN12C; assay: Cytotoxicity against human SN12C cells assessed as cell growth at 10 uM after 48 hrs by sulforhodamine B assay relative to control; conditions: read-out: Activity
[31] = tested on: HCC 2998; assay: Cytotoxicity against human HCC2998 cells assessed as cell growth at 100 uM after 48 hrs by sulforhodamine B assay relative to control; conditions: HCC 2998, 48 h, read-out: Activity
[32] = tested on: OVCAR-3; assay: Cytotoxicity against human OVCAR3 cells assessed as cell growth at 100 uM after 48 hrs by sulforhodamine B assay relative to control; conditions: OVCAR-3, 48 h, read-out: Activity
[33] = tested on: SK-OV-3; assay: Cytotoxicity against human SKOV3 cells assessed as cell growth at 100 uM after 48 hrs by sulforhodamine B assay relative to control; conditions: SK-OV-3, 48 h, read-out: Activity
[34] = tested on: RXF 393; assay: Cytotoxicity against human RXF393 cells assessed as cell growth at 100 uM after 48 hrs by sulforhodamine B assay relative to control; conditions: RXF 393, 48 h, read-out: Activity
[35] = tested on: BT-549; assay: Cytotoxicity against human BT549 cells assessed as cell growth at 100 uM after 48 hrs by sulforhodamine B assay relative to control; conditions: BT-549, 48 h, read-out: Activity
[36] = tested on: T47D; assay: Cytotoxicity against human T47D cells assessed as cell growth at 100 uM after 48 hrs by sulforhodamine B assay relative to control; conditions: read-out: Activity

Structure (SMILES): COc1cc(-c2cc(/C=C/C(=O)c3ccc(Cl)c(Cl)c3)[nH]n2)cc(OC)c1OC
- LC50 (concentration killing 50% of cells) [1]: > 100 µM
- TGI [1]: 23.5 µM
- LC50 (concentration killing 50% of cells) [2]: > 100 µM
- TGI [2]: 64.4 µM
- LC50 [3]: > 100 µM
- TGI [3]: > 100 µM
- LC50 [4]: > 100 µM
- TGI [4]: 37.8 µM
- LC50 [5]: > 100 µM
- TGI [5]: 50.9 µM
- LC50 [6]: > 100 µM
- TGI [6]: > 100 µM
- growth at 0.01 µM [7]: 99%
- growth at 0.01 µM [8]: 94%
- growth at 0.01 µM [9]: 104%
- growth at 0.01 µM [10]: 98%
- growth at 0.1 µM [11]: 88%
- growth at 0.1 µM [12]: 92%
- growth at 0.1 µM [13]: 96%
- growth at 0.1 µM [14]: 98%
- growth at 0.1 µM [15]: 106%
- growth at 0.1 µM [16]: 102%
- growth at 1 µM [17]: 96%
- growth at 1 µM [18]: 107%
- growth at 1 µM [19]: 93%
- growth at 1 µM [20]: 81%
- growth at 10 µM [21]: 79%
- growth at 10 µM [22]: 31%
- growth at 10 µM [23]: 53%
- growth at 10 µM [24]: 47%
- growth at 10 µM [25]: 61%
- growth at 10 µM [26]: 37%
- growth at 10 µM [27]: 63%
- growth at 10 µM [28]: 40%
- growth at 10 µM [29]: 51%
- growth at 10 µM [30]: 56%
- growth at 100 µM [31]: -50%
- growth at 100 µM [32]: -30%
- growth at 100 µM [33]: -70%
- growth at 100 µM [34]: -71%
- growth at 100 µM [35]: -53%
- growth at 100 µM [36]: -36%

Structure (SMILES): COc1ccc(C(=O)/C=C/c2cc(-c3cc(OC)c(OC)c(OC)c3)n[nH]2)cc1
- LC50 (concentration killing 50% of cells) [1]: > 100 µM
- TGI [1]: 5.85 µM
- LC50 (concentration killing 50% of cells) [2]: > 100 µM
- LC50 [3]: > 100 µM
- TGI [3]: 4.81 µM
- LC50 [4]: 7.27 µM
- TGI [4]: 3.56 µM
- LC50 [5]: > 100 µM
- TGI [5]: 8.32 µM
- LC50 [6]: > 100 µM
- TGI [6]: > 100 µM
- growth at 0.01 µM [7]: 100%
- growth at 0.01 µM [8]: 95%
- growth at 0.01 µM [9]: 97%
- growth at 0.01 µM [10]: 99%
- growth at 0.1 µM [11]: 101%
- growth at 0.1 µM [12]: 88%
- growth at 0.1 µM [13]: 95%
- growth at 0.1 µM [14]: 102%
- growth at 0.1 µM [15]: 94%
- growth at 0.1 µM [16]: 94%
- growth at 1 µM [17]: 95%
- growth at 1 µM [18]: 80%
- growth at 1 µM [19]: 92%
- growth at 1 µM [20]: 77%
- growth at 10 µM [21]: 2%
- growth at 10 µM [22]: -63%
- growth at 10 µM [23]: -58%
- growth at 10 µM [24]: -69%
- growth at 10 µM [25]: -44%
- growth at 10 µM [26]: -30%
- growth at 10 µM [27]: -74%
- growth at 10 µM [28]: -8%
- growth at 10 µM [29]: -1%
- growth at 10 µM [30]: -69%
- growth at 100 µM [31]: -82%
- growth at 100 µM [32]: -69%
- growth at 100 µM [33]: -41%
- growth at 100 µM [34]: -93%
- growth at 100 µM [35]: -49%
- growth at 100 µM [36]: -9%

Structure (SMILES): COc1ccc(-c2cc(/C=C/C(=O)c3ccc(N)cc3)[nH]n2)cc1OC
- GI50 [1]: 1.74 µM
- LC50 (concentration killing 50% of cells) [1]: > 100 µM
- TGI [1]: 7.81 µM
- GI50 [2]: 2.03 µM
- LC50 (concentration killing 50% of cells) [2]: > 100 µM
- TGI [2]: 36.4 µM
- GI50 [3]: 4.56 µM
- LC50 [3]: 73 µM
- TGI [3]: 19 µM
- GI50 [4]: 1.92 µM
- LC50 [4]: 9.14 µM
- TGI [4]: 4.19 µM
- GI50 [5]: 2.68 µM
- LC50 [5]: 40.5 µM
- TGI [5]: 15.8 µM
- GI50 [6]: 6.57 µM
- LC50 [6]: > 100 µM
- TGI [6]: > 100 µM
- growth at 0.01 µM [7]: 88%
- growth at 0.01 µM [8]: 98%
- growth at 0.01 µM [9]: 98%
- growth at 0.01 µM [10]: 98%
- growth at 0.1 µM [11]: 95%
- growth at 0.1 µM [12]: 90%
- growth at 0.1 µM [13]: 98%
- growth at 0.1 µM [14]: 106%
- growth at 0.1 µM [15]: 90%
- growth at 0.1 µM [16]: 107%
- growth at 1 µM [17]: 95%
- growth at 1 µM [18]: 69%
- growth at 1 µM [19]: 107%
- growth at 1 µM [20]: 86%
- growth at 10 µM [21]: 21%
- growth at 10 µM [22]: -49%
- growth at 10 µM [23]: -19%
- growth at 10 µM [24]: -18%
- growth at 10 µM [25]: -42%
- growth at 10 µM [26]: -15%
- growth at 10 µM [27]: 3%
- growth at 10 µM [28]: 2%
- growth at 10 µM [29]: 37%
- growth at 10 µM [30]: 14%
- growth at 100 µM [31]: -91%
- growth at 100 µM [32]: -99%
- growth at 100 µM [33]: -99%
- growth at 100 µM [34]: -95%
- growth at 100 µM [35]: -98%
- growth at 100 µM [36]: -40%
